Laboratory results published in patent EP0745597A2, “Novel melatonergic indanyl piperazines or homopiperazines” (BRISTOL-MYERS SQUIBB COMPANY, priority 1995, dated 1996).
“And” between values parts separate entries of the source, which are not always exact repeats. Equal values may be shown once.

target: T1, human ML1B receptor (Homo sapiens, UniProt P49286); test: Measurement of binding to melatonergic receptors (2-[125I]-iodomelatonin, membranes of transfected NIH 3T3 cells); details: 2-[125I]-Iodomelatonin 200 pM, 37 °C for 1 hour, NIH 3T3 cells stably transfected with the human ML1B receptor; read-out: Melatonin Binding
T1 construct: host or cells: NIH 3T3 cells, stably transfected; membrane homogenates
T1 sequence (P49286 1-362): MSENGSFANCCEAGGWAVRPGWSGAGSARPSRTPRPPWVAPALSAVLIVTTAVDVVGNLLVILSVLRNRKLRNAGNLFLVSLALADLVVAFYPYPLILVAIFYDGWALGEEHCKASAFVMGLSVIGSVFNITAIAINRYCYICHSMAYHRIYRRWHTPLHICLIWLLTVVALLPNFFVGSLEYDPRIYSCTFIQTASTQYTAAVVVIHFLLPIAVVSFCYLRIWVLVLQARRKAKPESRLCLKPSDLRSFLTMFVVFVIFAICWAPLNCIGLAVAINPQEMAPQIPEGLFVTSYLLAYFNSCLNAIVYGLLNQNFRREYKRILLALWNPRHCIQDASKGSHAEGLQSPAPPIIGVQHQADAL
Experimental: The melatonergic binding affinities of various compounds of Formula I were determined by the method of Reppert, S. M., Weaver, D. R., and Ebisawa, R. (Neuron, Volume 13, 1177-1185, 1994). The assays were incubated at 37 °C for 1 hour, and the reaction was terminated by filtration. The filters were washed with wash buffer. […] The reagents, membrane and other techniques used in the melatonergic binding assays are more fully described below: • 1. Reagents: • (a) 50 mM Tris buffer containing 12.5 mM MgCl2, and 2mM EDTA, pH 7.4 at 37 °C. • (b) Wash buffer: 20 mM Tris base containing 2 mM MgCl2. pH 7.4 at room temperature. • (c) Melatonin (10^-5 M final concentration). • (d) 2-[^125I]-Iodomelatonin, 200 pM final concentration Source: NEN • 2. Membrane preparation: NIH 3T3 cells stably transfected with the human ML1B receptor were obtained from S.M. Reppert and maintained. Cells were pelleted when confluent. The supernatant was discarded and the pellets frozen. For preparing membrane homogenates, the pellets are thawed on ice and resuspended in TME buffer, Tris base, MgCl2, EDTA (pH 7.4 at 37 °C ), supplemented with aprotinin, leupeptin, and […]. The cells were then homogenized and centrifuged. The resulting pellet was resuspended with a Dounce homogenizer in TME and frozen. At assay, a small aliquot was thawed on ice and resuspended in TME buffer. […] These compounds are considered active.

IC50 | Compound
100 to 250 nM | C=CCCCCCCCCC(=O)N1CCN(C2CCc3ccc(OC)cc32)CC1 (single isomer, unassigned; (-)) [(-)-4-(6-Methoxy-indan-1-yl)-1-(10-undecenoyl)piperazine]
10 to 100 nM | COc1ccc2c(c1)C(N1CCN(C(=O)c3csnn3)CC1)CC2 (single isomer, unassigned; (-)) [(-)-4-(6-Methoxy-indan-1-yl)-1-[(1,2,3-thiadiazol-4-yl)carbonyl]-piperazine]
< 10 nM | COc1ccc2c(c1)C(N1CCN(C(=O)c3cccn3C)CC1)CC2 (single isomer, unassigned; (-)) [(-)-4-(6-Methoxy-indan-1-yl)-1-[(1-methyl-pyrrol-2-yl)carbonyl]piperazine]
10 to 100 nM | COc1ccc2c(c1)C(N1CCN(C(=O)c3ccc[nH]3)CC1)CC2 (single isomer, unassigned; (-)) [(-)-4-(6-Methoxy-indan-1-yl)-1-[(1H-pyrrol-2-yl)carbonyl]-piperazine]
< 10 nM | COc1ccc2c(c1)C(N1CCN(C(=O)c3occc3C)CC1)CC2 (single isomer, unassigned; (-)) [(-)-4-(6-Methoxy-indan-1-yl)-1-[(3-methyl-furan-2-yl)carbonyl]piperazine]
< 10 nM | COc1ccc2c(c1)C(N1CCN(C(=O)c3ccsc3)CC1)CC2 (single isomer, unassigned; (-)) [(-)-4-(6-Methoxy-indan-1-yl)-1-[(3-thienyl)carbonyl]piperazine]
< 10 nM | CCNC(=O)N1CCN(C2CCc3ccc(OC)cc32)CC1 (single isomer, unassigned; (-)) [(-)-N-Ethyl-4-(6-methoxy-indan-1-yl)piperazine-1-carboxamide]
10 to 100 nM | CCCC(=O)N1CCN(C2CCCc3ccc(OC)cc32)CC1 (centres unmarked) [1-(1-Butanoyl)-4-(7-methoxy-tetralin-1-yl)piperazine]
10 to 100 nM | COc1ccc2c(c1)C(N1CCN(C(=O)C(C)(C)C)CC1)CC2 (centres unmarked) [1-(2,2-dimethyl-propanoyl)-4-(6-methoxy-indan-1-yl)piperazine]
< 10 nM | COc1ccc2c(c1)C(N1CCN(C(=O)C3CCC3)CC1)CC2 (centres unmarked) [1-(Cyclobutylcarbonyl)-4-(6-methoxy-indan-1-yl)piperazine]
10 to 100 nM | COc1ccc2c(c1)C(N1CCN(C(=O)C3CCCC3)CC1)CC2 (centres unmarked) [1-(Cyclopentylcarbonyl)-4-(6-methoxy-indan-1-yl)piperazine]
10 to 100 nM | COc1cc2c(cc1F)CCC2N1CCN(C(=O)C2CC2)CC1 (centres unmarked) [1-(Cyclopropylcarbonyl)-4-(5-fluoro-6-methoxy-indan-1-yl)piperazine]
< 10 nM | CCOc1ccc2c(c1)C(N1CCN(C(=O)C3CC3)CC1)CC2 (centres unmarked) [1-(Cyclopropylcarbonyl)-4-(6-ethoxy-indan-1-yl)piperazine]
100 to 250 nM | CCc1ccc2c(c1)C(N1CCN(C(=O)C3CC3)CC1)CC2 (centres unmarked) [1-(Cyclopropylcarbonyl)-4-(6-ethyl-indan-1-yl)piperazine]
10 to 100 nM | COc1ccc2c(c1)C(N1CCCN(C(=O)C3CC3)CC1)CC2 (centres unmarked) [1-(Cyclopropylcarbonyl)-4-(6-methoxy-indan-1-yl)homopiperazine]
< 10 nM | COc1ccc2c(c1)C(N1CCN(C(=O)C3CC3)CC1)CC2 (centres unmarked) [1-(Cyclopropylcarbonyl)-4-(6-methoxy-indan-1-yl)piperazine]
100 to 250 nM | CCCCCCCCCOc1ccc2c(c1)C(N1CCN(C(=O)C3CC3)CC1)CC2 (centres unmarked) [1-(Cyclopropylcarbonyl)-4-(6-nonyloxy-indan-1-yl)piperazine]
100 to 250 nM | COc1ccc2c(c1)C(N1CCN(C(=O)C3CC3)CC1)CCC2 (centres unmarked) [1-(Cyclopropylcarbonyl)-4-(7-methoxy-tetralin-1-yl)piperazine]
100 to 250 nM | O=C(C1CC1)N1CCN(C2CCc3ccccc32)CC1 (centres unmarked) [1-(Cyclopropylcarbonyl)-4-(indan-1-yl)piperazine]
10 to 100 nM | CCCOc1ccc2c(c1)C(N1CCN(C(=O)C3CC3)CC1)CC2 (centres unmarked) [1-(Cyclopropylcarbonyl)-4-[6-(1-propyloxy)indan-1-yl]piperazine]
10 to 100 nM | C=CC(=O)N1CCN(C2CCc3ccc(OC)cc32)CC1 (centres unmarked) [1-(Ethenylcarbonyl)-4-(6-methoxy-indan-1-yl)piperazine]
100 to 250 nM | CCOC(=O)N1CCN(C2CCc3ccc(OC)cc32)CC1 (centres unmarked) [1-(Ethoxycarbonyl)-4-(6-methoxy-indan-1-yl)piperazine]
10 to 100 nM | COCC(=O)N1CCN(C2CCc3ccc(OC)cc32)CC1 (centres unmarked) [1-(Methoxyacetyl)-4-(6-methoxy-indan-1-yl)piperazine]
100 to 250 nM | COc1ccc2c(c1)C(N1CCN(C(C)=O)CC1)CC2 (centres unmarked) [1-Acetyl-4-(6-methoxy-indan-1-yl)piperazine]

IC50 | Compound
10 to 100 nM | COc1ccc2c(c1)C(N1CCN(C(C)=O)CC1)CCC2 (centres unmarked) [1-Acetyl-4-(7-methoxy-tetralin-1-yl)piperazine]
< 10 nM | CCCC(=O)N1CCN(C2CCc3ccc(OC)cc32)CC1 (centres unmarked) [1-Butanoyl-4-(6-methoxy-indan-1-yl)piperazine]
< 10 nM | C=C(C)C(=O)N1CCN(C2CCc3ccc(OC)cc32)CC1 (centres unmarked) [1-[(1-Methyl-ethenyl)carbonyl]-4-(6-methoxy-indan-1-yl)piperazine]
< 10 nM | COc1ccc2c(c1)C(N1CCN(C(=O)c3ccco3)CC1)CC2 (centres unmarked) [1-[(2-Furanyl)carbonyl]-4-(6-methoxy-indan-1-yl)piperazine]
10 to 100 nM | COc1cc2c(cc1F)CCC2N1CCN(C(=O)C(C)C)CC1 (centres unmarked) [4-(5-Fluoro-6-methoxy-indan-1-yl)-1-(2-methylpropanoyl)piperazine]
100 to 250 nM | CCc1ccc2c(c1)C(N1CCN(C(=O)C(C)C)CC1)CC2 (centres unmarked) [4-(6-Ethyl-indan-1-yl)-1-(2-methylpropanoyl)piperazine]
10 to 100 nM | CCC(C)C(=O)N1CCN(C2CCc3ccc(OC)cc32)CC1 (centres unmarked) [4-(6-Methoxy-indan-1-yl)-1-(2-methyl-butanoyl)piperazine]
10 to 100 nM | COc1ccc2c(c1)C(N1CCCN(C(=O)C(C)C)CC1)CC2 (centres unmarked) [4-(6-Methoxy-indan-1-yl)-1-(2-methyl-propanoyl)homopiperazine]
< 10 nM and 100 to 250 nM | COc1ccc2c(c1)C(N1CCN(C(=O)C(C)C)CC1)CC2 (centres unmarked) [4-(6-Methoxy-indan-1-yl)-1-(2-methyl-propanoyl)piperazine]
< 10 nM | COc1ccc2c(c1)C(N1CCN(C(=O)c3cccs3)CC1)CC2 (centres unmarked) [4-(6-Methoxy-indan-1-yl)-1-[(2-thienyl)carbonyl]piperazine]
10 to 100 nM | CCC(=O)N1CCN(C2CCc3ccc(OC)cc32)CC1 (centres unmarked) [4-(6-Methoxy-indan-1-yl)-1-propanoylpiperazine]
100 to 250 nM | CC(=O)NCCc1c(Cc2ccccc2)[nH]c2ccccc12 [Luzindole, reference compound]
10 to 100 nM | COc1ccc2c(c1)C(N1CCN(C(=O)N(C)C)CC1)CC2 (centres unmarked) [N,N-Dimethyl-4-(6-methoxy-indan-1-yl)piperazine-1-carboxamide]
10 to 100 nM | COc1ccc2c(c1)C(N1CCN(C(=O)NC(C)C)CC1)CC2 (centres unmarked) [N-(1-Methylethyl)-4-(6-methoxy-indan-1-yl)piperazine-1-carboxamide]
10 to 100 nM | CCCNC(=O)N1CCN(C2CCc3ccc(OC)cc32)CC1 (centres unmarked) [N-(n-Propyl)-4-(6-methoxy-indan-1-yl)piperazine-1-carboxamide]
< 10 nM | COc1ccc2c(c1)C(N1CCN(C(=O)NC3CC3)CC1)CC2 (centres unmarked) [N-Cyclopropyl-4-(6-methoxy-indan-1-yl)piperazine-1-carboxamide]
10 to 100 nM | CCNC(=O)N1CCN(C2CCc3cc(F)c(OC)cc32)CC1 (centres unmarked) [N-Ethyl-4-(5-fluoro-6-methoxy-indan-1-yl)piperazine-1-carboxamide]
10 to 100 nM | CCNC(=O)N1CCN(C2CCc3ccc(OCC)cc32)CC1 (centres unmarked) [N-Ethyl-4-(6-ethoxy-indan-1-yl)piperazine-1-carboxamide]
10 to 100 nM | CCNC(=O)N1CCCN(C2CCc3ccc(OC)cc32)CC1 (centres unmarked) [N-Ethyl-4-(6-methoxy-indan-1-yl)homopiperazine-1-carboxamide]
10 to 100 nM | CCNC(=O)N1CCN(C2CCc3ccc(OC)cc32)CC1 (centres unmarked) [N-Ethyl-4-(6-methoxy-indan-1-yl)piperazine-1-carboxamide]
10 to 100 nM | CCCCCCCCCOc1ccc2c(c1)C(N1CCN(C(=O)NCC)CC1)CC2 (centres unmarked) [N-Ethyl-4-(6-nonyloxy-indan-1-yl)piperazine-1-carboxamide]
10 to 100 nM | CCCOc1ccc2c(c1)C(N1CCN(C(=O)NCC)CC1)CC2 (centres unmarked) [N-Ethyl-4-(6-propyloxy-indan-1-yl)piperazine-1-carboxamide]
100 to 250 nM | CCNC(=O)N1CCN(C2CCCc3ccc(OC)cc32)CC1 (centres unmarked) [N-Ethyl-4-(7-methoxy-tetralin-1-yl)piperazine-1-carboxamide]
